Data taken from publication PMC6379637, “Consecutive influenza surveillance of neuraminidase mutations and neuraminidase inhibitor resistance in Japan” (Influenza and Other Respiratory Viruses, 2019).
“And” between values parts separate entries of the source, which are not always exact repeats. Identical values can stand only once. Like-named read-outs stand apart in the source and are kept apart here.

Columns and labels:
A/H3N2 neuraminidase = assay type: biochemical, influenza A/H3N2 virus
[1] = test system: A/H1N1pdm09 neuraminidase; assay type: biochemical, influenza A/H1N1pdm09 virus
[2] = test system: influenza B neuraminidase; assay type: biochemical, influenza B virus
[3] = read-out: IC50 (nM), second column without sub-head (median IC50 value)

Row | SMILES | IC50 (A/H3N2 neuraminidase; read-out: median IC50 values) | reduced susceptibility class (RI/HRI, WHO criteria) [1] | IC50 ([1]; read-out: median IC50 values) | IC50 (A/H3N2 neuraminidase; read-out: IC50 (nM), median IC50 value (unheaded second column)) | IC50 (A/H3N2 neuraminidase; [3]) | IC50 (A/H3N2 neuraminidase; read-out: IC50 (nM), second unheaded column: median IC50 value) | IC50 (A/H3N2 neuraminidase; read-out: median IC50 value) | IC50 (A/H3N2 neuraminidase; read-out: median IC50 value (unheaded second column under IC50 (nM))) | Fold change (IC50 / median IC50) [2] | Fold change (ratio of IC50 to the median IC50 value) [2] | IC50 ([2]; read-out: median IC50 values)
1 | CCOC(=O)C1=C[C@@H](OC(CC)CC)[C@H](NC(C)=O)[C@@H](N)C1 [Oseltamivir, oseltamivir phosphate] | 1.1 nM | – | – | – | – | – | – | – | – | – | –
2 | CCC(CC)[C@H](NC(C)=O)[C@@H]1[C@H](O)[C@@H](C(=O)O)C[C@H]1N=C(N)N [Peramivir, peramivir hydrate] | – | RI (key: For A viruses, reduced inhibition (RI) was defined as a 10‐fold to 100‐fold increase in IC50 values; highly reduced inhibition (HRI) was defined as more than 100‐fold increase in IC50 values) | 0.3 nM and 0.5 nM and 0.4 nM | 1 nM | 0.8 nM | 0.7 nM | 0.7 nM | 0.7 nM | 0.9 and 0.762 and 1.0 and 0.857 and 0.667 and 1.2 and 1.1 and 0.952 | 0.8 and 1.1 and 0.7 and 0.76 and 1.0 and 1.3 and 1.2 and 0.9 | 2.5 nM and 2.1 nM
3 | CC(=O)N[C@H]1[C@H]([C@H](O)[C@H](O)CO)OC(C(=O)O)=C[C@@H]1N=C(N)N [Zanamivir, zanamivir hydrate] | 2.4 nM | – | – | – | 2.2 nM | – | 1.6 nM | – | – | – | –
